Results as given in PubChem BioAssay (NCI).
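In this assay, cells in 96-well plates receive the compound at five concentrations for 48 hours. Endpoints are linearly interpolated between the surrounding concentrations. The concentration for 50% growth inhibition is given as GI50. Definition used: TGI = concentration required for complete inhibition of growth.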

How the values were obtained:
Test in all cases: NCI-60 cell line screen, 48 h
SK-MEL-5 melanoma = tested on: SK-MEL-5 melanoma
SF-539 CNS = tested on: SF-539 CNS
HCC-2998 colon = tested on: HCC-2998 colon
HOP-18 NSCLC = tested on: HOP-18 NSCLC
MALME-3M melanoma = tested on: MALME-3M melanoma
SK-MEL-28 melanoma = tested on: SK-MEL-28 melanoma
SNB-75 CNS = tested on: SNB-75 CNS
OVCAR-8 ovarian = tested on: OVCAR-8 ovarian
TK-10 renal = tested on: TK-10 renal
LOX IMVI melanoma = tested on: LOX IMVI melanoma
U251 CNS = tested on: U251 CNS
NCI-H23 lung = tested on: NCI-H23 lung
SK-OV-3 ovarian = tested on: SK-OV-3 ovarian
BT-549 breast = tested on: BT-549 breast
RPMI-8226 leukemia = tested on: RPMI-8226 leukemia
MDA-MB-435 = tested on: MDA-MB-435
HL-60(TB) leukemia = tested on: HL-60(TB) leukemia
SR leukemia = tested on: SR leukemia
DMS 114 small cell lung = tested on: DMS 114 small cell lung

CC(=O)OC1/C=C(\C)C(OC(C)=O)C/C=C(/C)CCC2C(/C=C/C1=O)C2(C)C (stereo not given)
TGI (SK-MEL-5 melanoma): > 100 µM | TGI (SF-539 CNS): > 100 µM | TGI (HCC-2998 colon): > 100 µM | TGI (HOP-18 NSCLC): > 100 µM | TGI (MALME-3M melanoma): > 100 µM | TGI (SK-MEL-28 melanoma): > 100 µM | TGI (SNB-75 CNS): 93.1 µM | TGI (OVCAR-8 ovarian): > 100 µM | TGI (TK-10 renal): > 100 µM | TGI (LOX IMVI melanoma): > 100 µM | TGI (U251 CNS): > 100 µM | TGI (NCI-H23 lung): > 100 µM | TGI (SK-OV-3 ovarian): > 100 µM

NC(CCCCCP(=O)(c1ccccc1)C1C=CC=CC1)C(=O)O (stereo not given)
TGI (SK-MEL-5 melanoma): > 100 µM | TGI (SF-539 CNS): > 100 µM | TGI (SK-MEL-28 melanoma): > 100 µM | TGI (BT-549 breast): > 100 µM | TGI (SNB-75 CNS): > 100 µM | TGI (RPMI-8226 leukemia): > 100 µM | TGI (OVCAR-8 ovarian): > 100 µM | TGI (TK-10 renal): > 100 µM | TGI (MDA-MB-435): > 100 µM | TGI (LOX IMVI melanoma): > 100 µM | TGI (U251 CNS): > 100 µM | TGI (NCI-H23 lung): > 100 µM | TGI (HL-60(TB) leukemia): > 100 µM | TGI (SK-OV-3 ovarian): > 100 µM | TGI (SR leukemia): > 100 µM

CCCC(=O)OCC1OC(n2ccc(N)nc2=O)C(OC(=O)CCC)C1OC(=O)CCC (stereo not given)
TGI (SK-MEL-5 melanoma): > 100 µM | TGI (SF-539 CNS): > 100 µM | TGI (HCC-2998 colon): > 100 µM | TGI (HOP-18 NSCLC): > 100 µM | TGI (MALME-3M melanoma): > 100 µM | TGI (SK-MEL-28 melanoma): > 95.2 µM | TGI (SNB-75 CNS): > 100 µM | TGI (DMS 114 small cell lung): > 100 µM | TGI (RPMI-8226 leukemia): > 100 µM | TGI (OVCAR-8 ovarian): > 100 µM | TGI (LOX IMVI melanoma): > 100 µM | TGI (U251 CNS): > 100 µM | TGI (NCI-H23 lung): > 100 µM | TGI (HL-60(TB) leukemia): 25.1 µM | TGI (SK-OV-3 ovarian): > 100 µM

CC(C)Cc1ccc(C(C)C(=O)N2CCN(/C=C/c3ccccc3)CC2)cc1 (stereo not given)
TGI (SK-MEL-5 melanoma): 26 µM | TGI (SF-539 CNS): 28.9 µM | TGI (HCC-2998 colon): 31.8 µM | TGI (HOP-18 NSCLC): 35.9 µM | TGI (MALME-3M melanoma): 30.4 µM | TGI (SK-MEL-28 melanoma): 32.1 µM | TGI (SNB-75 CNS): 29.1 µM | TGI (DMS 114 small cell lung): 24.6 µM | TGI (RPMI-8226 leukemia): 25.6 µM | TGI (OVCAR-8 ovarian): 29.1 µM | TGI (LOX IMVI melanoma): 33.1 µM | TGI (U251 CNS): 25.5 µM | TGI (NCI-H23 lung): 27.1 µM | TGI (HL-60(TB) leukemia): 18.7 µM | TGI (SK-OV-3 ovarian): 30.3 µM

COc1ccc(/C=C2\CCNC2=O)cc1
TGI (SK-MEL-5 melanoma): > 100 µM | TGI (SF-539 CNS): > 100 µM | TGI (HCC-2998 colon): > 100 µM | TGI (HOP-18 NSCLC): > 100 µM | TGI (MALME-3M melanoma): > 100 µM | TGI (SK-MEL-28 melanoma): > 100 µM | TGI (SNB-75 CNS): > 79.5 µM | TGI (DMS 114 small cell lung): > 100 µM | TGI (RPMI-8226 leukemia): > 100 µM | TGI (OVCAR-8 ovarian): > 100 µM | TGI (LOX IMVI melanoma): > 100 µM | TGI (U251 CNS): > 100 µM | TGI (NCI-H23 lung): > 100 µM | TGI (HL-60(TB) leukemia): > 100 µM | TGI (SK-OV-3 ovarian): > 100 µM

O=c1sc2ccccc2n1CC1CS1 (stereo not given)
TGI (SF-539 CNS): > 100 µM | TGI (HCC-2998 colon): > 100 µM | TGI (MALME-3M melanoma): > 100 µM | TGI (SK-MEL-28 melanoma): > 100 µM | TGI (DMS 114 small cell lung): > 100 µM | TGI (RPMI-8226 leukemia): > 100 µM | TGI (OVCAR-8 ovarian): > 100 µM | TGI (TK-10 renal): > 100 µM | TGI (LOX IMVI melanoma): > 100 µM | TGI (HL-60(TB) leukemia): > 100 µM | TGI (SK-OV-3 ovarian): > 100 µM | TGI (SR leukemia): > 100 µM

O=C1c2cccc3c2C(=O)c2c(cccc21)OCCOCCOCCOCCO3
TGI (SK-MEL-5 melanoma): > 100 µM | TGI (SF-539 CNS): > 100 µM | TGI (HCC-2998 colon): > 100 µM | TGI (HOP-18 NSCLC): > 100 µM | TGI (MALME-3M melanoma): > 100 µM | TGI (SNB-75 CNS): > 100 µM | TGI (DMS 114 small cell lung): > 100 µM | TGI (RPMI-8226 leukemia): > 100 µM | TGI (OVCAR-8 ovarian): > 100 µM | TGI (TK-10 renal): > 100 µM | TGI (LOX IMVI melanoma): > 100 µM | TGI (U251 CNS): > 100 µM | TGI (NCI-H23 lung): > 100 µM | TGI (HL-60(TB) leukemia): > 100 µM | TGI (SK-OV-3 ovarian): > 100 µM | TGI (SR leukemia): 58.9 µM

CCN(CC)CCNc1ccc2nnn3c4ccc(OCCN(CC)CC)cc4c(=O)c1c23
TGI (SF-539 CNS): > 100 µM | TGI (HCC-2998 colon): > 100 µM | TGI (SK-MEL-28 melanoma): > 100 µM | TGI (BT-549 breast): > 100 µM | TGI (RPMI-8226 leukemia): > 100 µM | TGI (OVCAR-8 ovarian): > 100 µM | TGI (TK-10 renal): > 100 µM | TGI (MDA-MB-435): > 100 µM | TGI (U251 CNS): > 100 µM | TGI (NCI-H23 lung): > 100 µM | TGI (SK-OV-3 ovarian): > 100 µM | TGI (SR leukemia): 45.4 µM

O=P(O)(O)CCP(=O)(O)O
TGI (SK-MEL-5 melanoma): > 100 µM | TGI (SF-539 CNS): > 100 µM | TGI (MALME-3M melanoma): > 100 µM | TGI (SK-MEL-28 melanoma): > 100 µM | TGI (BT-549 breast): > 100 µM | TGI (RPMI-8226 leukemia): > 100 µM | TGI (OVCAR-8 ovarian): > 100 µM | TGI (TK-10 renal): > 100 µM | TGI (MDA-MB-435): > 100 µM | TGI (LOX IMVI melanoma): > 100 µM | TGI (U251 CNS): > 100 µM | TGI (NCI-H23 lung): > 100 µM | TGI (HL-60(TB) leukemia): > 100 µM | TGI (SK-OV-3 ovarian): > 100 µM | TGI (SR leukemia): > 100 µM

CCOc1ncn(-c2ccc(NC(=S)Nc3ncccn3)cc2)n1
TGI (SK-MEL-5 melanoma): 44.9 µM | TGI (SF-539 CNS): 33.5 µM | TGI (HCC-2998 colon): 46 µM | TGI (SK-MEL-28 melanoma): 59.8 µM | TGI (BT-549 breast): 71.1 µM | TGI (SNB-75 CNS): > 100 µM | TGI (RPMI-8226 leukemia): > 100 µM | TGI (OVCAR-8 ovarian): 56 µM | TGI (TK-10 renal): > 100 µM | TGI (MDA-MB-435): > 100 µM | TGI (LOX IMVI melanoma): 37.9 µM | TGI (U251 CNS): > 100 µM | TGI (NCI-H23 lung): > 100 µM | TGI (HL-60(TB) leukemia): 65.2 µM | TGI (SK-OV-3 ovarian): > 100 µM | TGI (SR leukemia): 59.5 µM

O=c1cc[nH]c(=O)[nH]1
TGI (SK-MEL-5 melanoma): 342 µM | TGI (SF-539 CNS): 926 µM | TGI (HCC-2998 colon): 528 µM | TGI (HOP-18 NSCLC): > 1000 µM | GI50 (MALME-3M melanoma): > 851 µM | TGI (MALME-3M melanoma): > 1000 µM | TGI (SK-MEL-28 melanoma): > 900 µM | TGI (SNB-75 CNS): > 953 µM | TGI (DMS 114 small cell lung): > 1000 µM | TGI (RPMI-8226 leukemia): > 1000 µM | TGI (OVCAR-8 ovarian): > 1000 µM | TGI (LOX IMVI melanoma): 866 µM | TGI (U251 CNS): > 1000 µM | TGI (NCI-H23 lung): > 315 µM | TGI (HL-60(TB) leukemia): > 1000 µM | TGI (SK-OV-3 ovarian): > 1000 µM
